We go through 18 compounds from patent EP2951180B1, “2,6,7,8 SUBSTITUTED PURINES AS HDM2 INHIBITORS” (Merck Sharp & Dohme Corp., priority 2013, dated 2014).

The target of the assay is T1, HDM2 (Homo sapiens, UniProt Q00987).
T1 construct: Thioredoxin (N); made in house; host or cells: E. coli strain BL21(DE3)Rosetta
T1 sequence (Q00987 17-125): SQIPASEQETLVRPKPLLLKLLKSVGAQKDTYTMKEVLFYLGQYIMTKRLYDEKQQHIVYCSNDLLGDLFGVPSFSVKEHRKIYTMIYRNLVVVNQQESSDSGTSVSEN
The assay can be described thus: HDM2 FRET assay (inhibition of binding of FITC labeled p53-pocket peptide to HDM2). The note with it: 0.5 nM HDM2 (residues 17 to 125), 3nM peptide, two hour incubation at room temperature; read-out: FRET IC50. In a few lines: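 Compounds were tested in 10-point serial dilution against 0.5 nM recombinant HDM2 binding 3 nM fluorescein-labeled p53-pocket peptide. Detection used 0.25 nM terbium cryptate anti-6xHis antibody in PBS buffer containing 0.01% BSA and 0.01% Tween-20.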
On to `C[C@H](Nc1nc2nc(-c3noc(=O)[nH]3)nc(-c3cccc(Cl)c3)c2n1C[C@H]1CC[C@H](C)CC1)c1cccc(F)c1` [Example 16.49, 3-{6-(3-chlorophenyl)-8-{[(1S)-1-(3-fluorophenyl)ethyl]amino}-7-[(trans-4-methylcyclohexyl)methyl]-7H-purin-2-yl}-1,2,4-oxadiazol-5(4H)-one], for which the IC50 came out at 1.63 nM.

On to `CC[C@H](Nc1nc2nc(-c3noc(=O)[nH]3)nc(-c3cccc(Cl)c3)c2n1C[C@H]1CC[C@H](C)CC1)c1ccccc1` [Example 16.50, 3-[6-(3-chlorophenyl)-7-[(trans-4-methylcyclohexyl)methyl]-8-{[(1S)-1-phenylpropyl]amino} -7H-purin-2-yl]-1,2,4-oxadiazol-5(4H)-one], for which the IC50 came to 2.67 nM.

Turning to `C[C@@H]1CNCCN1c1nc2nc(-c3noc(=O)[nH]3)nc(-c3cccc(Cl)c3)c2n1C[C@H]1CC[C@H](C)CC1` [Example 16.54, 3-{6-(3-chlorophenyl)-7-[(trans-4-methylcyclohexyl)methyl]-8-[(2R)-2-methylpiperazin-1-yl]-7H-purin-2-yl}-1,2,4-oxadiazol-5(4H)-one], the IC50 was determined as 59 nM. As for `C[C@H](Nc1nc2nc(-c3n[nH]c(=O)o3)nc(-c3cccc(Cl)c3)c2n1C[C@H]1CC[C@H](C)CC1)c1cccc(F)c1` [Example 16.55, 5-{6-(3-chlorophenyl)-8-{[(1S)-1-(3-fluorophenyl)ethyl]amino}-7-[(trans-4-methylcyclohexyl)methyl]-7H-purin-2-yl}-1,3,4-oxadiazol-2(3H)-one], the IC50 turned out to be 5.04 nM. The same measure for `CN(Cc1ccccc1)c1nc2nc(-c3noc(=O)[nH]3)nc(-c3cccc(Cl)c3)c2n1C[C@H]1CC[C@H](C)CC1` [Example 16.56, 3-{8-[benzyl(methyl)amino]-6-(3-chlorophenyl)-7-[(trans-4-methylcyclohexyl)methyl]-7H-purin-2-yl}-1,2,4-oxadiazol-5(4H)-one]: 42.9 nM; for `C[C@H](O)[C@H](Nc1nc2nc(-c3n[nH]c(=O)o3)nc(-c3cccc(Cl)c3)c2n1C[C@H]1CC[C@H](C)CC1)c1ccccc1` [Example 16.57, 5-{6-(3-chlorophenyl)-8-{[(1R,2S)-2-hydroxy-1-phenylpropyl]amino} -7-[(trans-4-methylcyclohexyl)methyl]-7H-purin-2-yl}-1,3,4-oxadiazol-2(3H)-one]: 5.54 nM; for `CC[C@@H]1COCCN1c1nc2nc(-c3n[nH]c(=O)o3)nc(-c3cccc(Cl)c3)c2n1C[C@H]1CC[C@H](C)CC1` [Example 16.58, 5-{6-(3-chlorophenyl)-8-[(3R)-3-ethylmorpholin-4-yl]-7-[(trans-4-methylcyclohexyl)methyl]-7H-purin-2-yl}-1,3,4-oxadiazol-2(3H)-one]: 21.4 nM. To `COC[C@@H]1COCCN1c1nc2nc(-c3noc(=O)[nH]3)nc(-c3cccc(Cl)c3)c2n1C[C@H]1CC[C@H](C)CC1` [Example 16.59, 3-{6-(3-chlorophenyl)-8-[(3R)-3-(methoxymethyl)mor pholin-4-yl]-7-[(trans-4-methylcyclohexyl)methyl]-7H-purin-2-yl}-1,2,4-oxadiazol-5(4H)-one] belongs 19 nM.

For `C[C@@H]1COC[C@@H](C)N1c1nc2nc(-c3noc(=O)[nH]3)nc(-c3cccc(Cl)c3)c2n1C[C@H]1CC[C@H](C)CC1` [Example 16.60, 3-{6-(3-chlorophenyl)-8-[(3R,5R)-3,5-dimethylmorpholin-4-yl]-7-[(trans-4-methylcyclohexyl)methyl]-7H-purin-2-yl}-1,2,4-oxadiazol-5(4H)-one], the IC50 was 2.23 nM. To `CC[C@H](Nc1nc2nc(-c3n[nH]c(=O)o3)nc(-c3cccc(Cl)c3)c2n1C[C@H]1CC[C@H](C)CC1)c1ccccc1` [Example 16.61, 5-[6-(3-chlorophenyl)-7-[(trans-4-methylcyclohexyl)methyl]-8-{[(1S)-1-phenylpropyl]amino} -7H-purin-2-yl]-1,3,4-oxadiazol-2(3H)-one] belongs 9.67 nM. `CN(Cc1ccccc1)c1nc2nc(-c3n[nH]c(=O)o3)nc(-c3cccc(Cl)c3)c2n1C[C@H]1CC[C@H](C)CC1` [Example 16.62, 5-{8-[benzyl(methyl)amino]-6-(3-chlorophenyl)-7-[(trans-4-methylcyclohexyl)methyl]-7H-purin-2-yl}-1,3,4-oxadiazol-2(3H)-one]: the IC50 amounted to 136 nM. With `COC(C)(C)[C@@H]1COCCN1c1nc2nc(-c3noc(=O)[nH]3)nc(-c3cccc(Cl)c3)c2n1C[C@H]1CC[C@H](C)CC1` [Example 16.63, 3-{6-(3-chlorophenyl)-8-[(3S)-3-(1-methoxy-1-methylethyl)morpholin-4-yl]-7-[(trans-4-methylcyclohexyl)methyl]-7H-purin-2-yl}-1,2,4-oxadiazol-5(4H)-one], the IC50 stood at 19.7 nM. The same measure for `CC[C@H](Nc1nc2nc(-c3noc(=O)[nH]3)nc(-c3cccc(Cl)c3)c2n1C[C@H]1CC[C@H](C)CC1)c1cccc(F)c1` [Example 16.64, 3-{6-(3-chlorophenyl)-8-{[(1S)-1-(3-fluorophenyl)propyl]amino}-7-[(trans-4-methylcyclohexyl)methyl]-7H-purin-2-yl}-1,2,4-oxadiazol-5(4H)-one]: 3.16 nM; for `C[C@@H]1COC[C@H](C)N1c1nc2nc(-c3noc(=O)[nH]3)nc(-c3cccc(Cl)c3)c2n1C[C@H]1CC[C@H](C)CC1` [Example 16.67, 3-{6-(3-chlorophenyl)-8-[(3R,5S)-3,5-dimethylmorpholin-4-yl]-7-[(trans-4-methylcyclohexyl)methyl]-7H-purin-2-yl}-1,2,4-oxadiazol-5(4H)-one]: 6.36 nM; for `C[C@@H]1CN(C)C(=O)CN1c1nc2nc(-c3noc(=O)[nH]3)nc(-c3cccc(Cl)c3)c2n1C[C@H]1CC[C@H](C)CC1` [Example 16.68, (5R)-4-[6-(3-chlorophenyl)-7-[(trans-4-methylcyclohexyl)methyl]-2-(5-oxo-4,5-dihydro-1,2,4-oxadiazol-3-yl)-7H-purin-8-yl]-1,5-dimethylpiperazin-2-one]: 11.5 nM. The same measure for `C[C@H]1CC[C@H](Cn2c(N3CCC[C@H]3C(F)(F)F)nc3nc(-c4noc(=O)[nH]4)nc(-c4cccc(Cl)c4)c32)CC1` [Example 16.69, 3-{6-(3-chlorophenyl)-7-[(trans-4-methylcyclohexyl)methyl]-8-[(2S)-2-(trifluoromethyl)pyrrolidin-1-yl]-7H-purin-2-yl}-1,2,4-oxadiazol-5 (4H)-one]: 0.918 nM; for `C[C@H]1CC[C@H](Cn2c(N3CCC[C@H]3C(F)(F)F)nc3nc(-c4noc(=O)[nH]4)nc(-c4cncc(Cl)c4)c32)CC1` [Example 16.74, 3-{6-(5-chloropyridin-3-yl)-7-[(trans-4-methylcyclohexyl)methyl]-8-[(2S)-2-(trifluoromethyl)pyrrolidin-1-yl]-7H-purin-2-yl}-1,2,4-oxadiazol-5(4H)-one]: 0.585 nM; for `CC(C)[C@@H]1COCCN1c1nc2nc(-c3n[nH]c(=O)o3)nc(-c3cccc(Cl)c3)c2n1C[C@H]1CC[C@H](C)CC1` [Example 16.75, 5-{6-(3-chlorophenyl)-7-[(trans-4-methylcyclohexyl)methyl]-8-[(3R)-3-(1-methylethyl)morpholin-4-yl]-7H-purin-2-yl}-1,3,4-oxadiazol-2(3H)-one]: 14.7 nM.
